Where only a bound is given, the exact number is not on record here.

One test addresses T1, h-TGR5 (Homo sapiens, UniProt Q8TDU6).
T1 sequence (Q8TDU6 1-330): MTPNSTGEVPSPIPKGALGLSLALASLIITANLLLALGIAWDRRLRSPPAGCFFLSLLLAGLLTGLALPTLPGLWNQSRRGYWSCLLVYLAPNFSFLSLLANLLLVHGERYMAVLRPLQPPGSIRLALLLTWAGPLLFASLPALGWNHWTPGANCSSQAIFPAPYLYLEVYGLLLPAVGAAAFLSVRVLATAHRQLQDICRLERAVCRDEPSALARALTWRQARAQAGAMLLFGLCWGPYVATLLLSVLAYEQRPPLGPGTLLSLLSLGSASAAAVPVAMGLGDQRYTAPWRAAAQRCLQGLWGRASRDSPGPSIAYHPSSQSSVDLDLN
Nature of the test: TGR5 cAMP Assay using Cisbio cAMP Dynamic 2 htrf assay kit. Conditions: hTGR5CRE-luc HEK 293 cells. Type of test: cell-based. How it is done:
Compounds were diluted in DPBS with 5% DMSO (8-point serial dilution by half logs) in a 96-well plate and 1 μL was transferred to a 384-well assay plate in quadruplicate. The d2-cAMP and anti-cAMP Ab-cryptate stock solution were prepared as per the instructions in the Cisbio™ (Bedford, Mass.) kit. Cells (hTGR5CRE-luc HEK 293 and mTGR5CRE-luc HEK 293) were harvested using cell dissociation buffer and resuspended in DPBS. Cells were adjusted to 0.44×10^6 cells/ml followed by addition of IBMX to a final concentration of 0.5 mM. The cells were then mixed with d2-cAMP solution (7.1 mL cells+100 ul d2-cAMP) and 4000 cells (9 μL) were transferred to each well of the 384-well assay plate. Cells without d2-cAMP were added to eight wells as a negative control. The plate was covered and incubated at room temp for 30 min. Then 10 μL of Ab-cryptate solution was added to each well of the assay plate and incubated for 1 hr. The plate was read on an EnVision™ plate reader (Perkin-Elmer, Waltham, Mass.) and the DeltaF value was calculated as per the instructions in the Cisbio™ kit.
(§1) In the following tables, ECso values determined according to the TGR5 cAMP Assay are noted (cAMP); EC50 values determined according to the TGR5/CRE-Luciferiase Assay are noted (CRE-Luc).

For a further test, the target named is T2, human TGR5 (h-TGR5) (Homo sapiens, UniProt Q8TDU6).
T2 sequence (Q8TDU6 1-330): T1 sequence (Q8TDU6 1-330)
The test is described as follows: TGR5/CRE-Luciferase Assay. The test is classed as cell-based. Particulars: HEK 293 hTGR5/CRE-Luc cells, 6 hours incubation, read-out: CRE-Luc Agonist (EC50). How it is done:
HEK 293 cells stably expressing human TGR5 (h-TGR5) or mouse TGR5 (m-TGR5) were generated from HEK 293 CRE-Luciferase cells. The day before the assay, HEK 293 hTGR5/CRE-Luc cells were plated in DMEM in a 384 well assay plate at a density of 25 k cells/45 μL per well and grown for 18-20 hours. Compounds were serially diluted in DMEM containing 5% DMSO and 5 µL of compound or media alone was transferred to each well and plates were incubated for 6 hours. Following incubation, 30 μL of lysis/luciferase buffer was added to each well. The luciferase activity was then measured on the EnVision™ plate reader and the dose response data was analyzed using ActivityBase.
as §1

For the molecule “2-({[3-chloro-5-fluoro-4-({[5-{1-[4-fluoro-3-(methyloxy)phenyl]-1-methylethyl}-1-(4-fluorophenyl)-1H-imidazol-2-yl]thio}methyl)phenyl]carbonyl}amino)-N,N,N-trimethylethanaminium [Example 1d]”, the EC50 at h-TGR5 and on human TGR5 (h-TGR5) was less than 100 nM throughout.

Turning to `COc1cc(C(C)(C)c2cnc(SCc3c(F)cc(S(=O)(=O)NCCC[n+]4ccn(C)c4)cc3Cl)n2-c2ccc(F)cc2)ccc1F` [Compound 10, 3-(3-(3-chloro-5-fluoro-4-((5-(2-(4-fluoro-3-methoxyphenyl)propan-2-yl)-1-(4-fluorophenyl)-1H-imidazol-2-ylthio)methyl)phenylsulfonamido)propyl)-1-methyl-1H-imidazol-3-ium methanesulfonate], the EC50 at h-TGR5 and at human TGR5 (h-TGR5) was less than 100 nM throughout.

Regarding `COc1cc(C(C)(C)c2cnc(SCc3c(F)cc(S(=O)(=O)NCCc4ccc[n+](C)c4)cc3Cl)n2-c2ccc(F)cc2)ccc1F` [Compound 11, 3-(2-(3-chloro-5-fluoro-4-((5-(2-(4-fluoro-3-methoxyphenyl)propan-2-yl)-1-(4-fluorophenyl)-1H-imidazol-2-ylthio)methyl)phenylsulfonamido)ethyl)-1-methylpyridinium chloride], the EC50 at h-TGR5 and at human TGR5 (h-TGR5) was less than 100 nM each time.

Turning to `COc1cc(C(C)(C)c2cnc(SCc3c(F)cc(S(=O)(=O)N[C@H]4CCC[N+](C)(C)C4)cc3Cl)n2-c2ccc(F)cc2)ccc1Cl` [Compound 11a, (3S)-3-({[3-chloro-4-({[5-{1-[4-chloro-3-(methyloxy)phenyl]-1-methylethyl}-1-(4-fluorophenyl)-1H-imidazol-2-yl]thio}methyl)-5-fluorophenyl]sulfonyl}amino)-1,1-dimethylpiperidinium], the EC50 at h-TGR5 and on human TGR5 (h-TGR5) was less than 100 nM throughout.

On to `COc1cc(C(C)(C)c2cnc(SCc3c(F)cc(S(=O)(=O)NC4CC[N+](C)(C)CC4)cc3F)n2-c2ccc(F)cc2)ccc1Cl` [Compound 11b, 4-({[4-({[5-{1-[4-chloro-3-(methyloxy)phenyl]-1-methylethyl}-1-(4-fluorophenyl)-1H-imidazol-2-yl]thio}methyl)-3,5-difluorophenyl]sulfonyl}amino)-1,1-dimethylpiperidinium], for which the concentration for a half-maximal effect (EC50) at h-TGR5 and on human TGR5 (h-TGR5) was less than 100 nM in each case.

With `COc1cc(C(C)(C)c2cnc(SCc3c(F)cc(S(=O)(=O)N4CCC([N+](C)(C)C)CC4)cc3F)n2-c2ccc(F)cc2)ccc1Cl` [Compound 11c, 1-{[4-({[5-{1-[4-chloro-3-(methyloxy)phenyl]-1-methylethyl}-1-(4-fluorophenyl)-1H-imidazol-2-yl]thio}methyl)-3,5-difluorophenyl]sulfonyl}-N,N,N-trimethylpiperidin-4-aminium], the EC50 at h-TGR5 and at human TGR5 (h-TGR5) was less than 100 nM each time.

For the molecule `COc1cc(C(C)(C)c2cnc(SCc3c(F)cc(S(=O)(=O)N[C@@H]4CCC[N+](C)(C)C4)cc3F)n2-c2ccc(F)cc2)ccc1Cl` [Compound 11d, (3R)-3-({[4-({[5-{1-[4-chloro-3-(methyloxy)phenyl]-1-methylethyl}-1-(4-fluorophenyl)-1H-imidazol-2-yl]thio}methyl)-3,5-difluorophenyl]sulfonyl}amino)-1,1-dimethylpiperidinium], the EC50 at h-TGR5 and at human TGR5 (h-TGR5) was less than 100 nM in each case.

Regarding `COc1cc(C(C)(C)c2cnc(SCc3c(F)cc(S(=O)(=O)N[C@H]4CCC[N+](C)(C)C4)cc3F)n2-c2ccc(F)cc2)ccc1Cl` [Compound 11e, (3S)-3-({[4-({[5-{1-[4-chloro-3-(methyloxy)phenyl]-1-methylethyl}-1-(4-fluorophenyl)-1H-imidazol-2-yl]thio}methyl)-3,5-difluorophenyl]sulfonyl}amino)-1,1-dimethylpiperidinium], the EC50 at h-TGR5 and at human TGR5 (h-TGR5) was less than 100 nM each time.

On to `COc1cc(C(C)(C)c2cnc(SCc3c(F)cc(S(=O)(=O)N4CCC([N+](C)(C)C)CC4)cc3Cl)n2-c2ccc(F)cc2)ccc1Cl` [Compound 11f, 1-{[3-chloro-4-({[5-{1-[4-chloro-3-(methyloxy)phenyl]-1-methylethyl}-1-(4-fluorophenyl)-1H-imidazol-2-yl]thio}methyl)-5-fluorophenyl]sulfonyl}-N,N,N-trimethylpiperidin-4-aminium], for which the EC50 on h-TGR5 and on human TGR5 (h-TGR5) was less than 100 nM throughout.

Take `COc1cc(C(C)(C)c2cnc(SCc3c(F)cc(S(=O)(=O)N4CCC[C@@H]([N+](C)(C)C)C4)cc3Cl)n2-c2ccc(F)cc2)ccc1Cl` [Compound 11g, (3R)-1-{[3-chloro-4-({[5-{1-[4-chloro-3-(methyloxy)phenyl]-1-methylethyl}-1-(4-fluorophenyl)-1H-imidazol-2-yl]thio}methyl)-5-fluorophenyl]sulfonyl}-N,N,N-trimethylpiperidin-3-aminium]: the concentration giving a half-maximal response (EC50) on h-TGR5 and at human TGR5 (h-TGR5) was less than 100 nM in each case.

For `COc1cc(C(C)(C)c2cnc(SCc3c(F)cc(S(=O)(=O)N4CCC[C@H]([N+](C)(C)C)C4)cc3Cl)n2-c2ccc(F)cc2)ccc1Cl` [Compound 11h, (3S)-1-{[3-chloro-4-({[5-{1-[4-chloro-3-(methyloxy)phenyl]-1-methylethyl}-1-(4-fluorophenyl)-1H-imidazol-2-yl]thio}methyl)-5-fluorophenyl]sulfonyl}-N,N,N-trimethylpiperidin-3-aminium], the EC50 on h-TGR5 and on human TGR5 (h-TGR5) was less than 100 nM each time.

Turning to `COc1cc(C(C)(C)c2cnc(SCc3c(F)cc(S(=O)(=O)N4CC[C@@H]([N+](C)(C)C)C4)cc3Cl)n2-c2ccc(F)cc2)ccc1Cl` [Compound 11i, (3R)-1-{[3-chloro-4-({[5-{1-[4-chloro-3-(methyloxy)phenyl]-1-methylethyl}-1-(4-fluorophenyl)-1H-imidazol-2-yl]thio}methyl)-5-fluorophenyl]sulfonyl}-N,N,N-trimethylpyrrolidin-3-aminium], the EC50 at h-TGR5 and at human TGR5 (h-TGR5) was less than 100 nM throughout.

For the molecule `CC[N+](C)(C)C1CCN(S(=O)(=O)c2cc(F)c(CSc3ncc(C(C)(C)c4ccc(Cl)c(OC)c4)n3-c3ccc(F)cc3)c(Cl)c2)CC1` [Compound 11j, 1-{[3-chloro-4-({[5-{1-[4-chloro-3-(methyloxy)phenyl]-1-methylethyl}-1-(4-fluorophenyl)-1H-imidazol-2-yl]thio}methyl)-5-fluorophenyl)sulfonyl}-N-ethyl-N,N-dimethylpiperidin-4-aminium], the EC50 at h-TGR5 and on human TGR5 (h-TGR5) was less than 100 nM in each case.

As for `COc1cc(C(C)(C)c2cnc(SCc3c(F)cc(S(=O)(=O)N4CC[N+](C)(C)CC4)cc3Cl)n2-c2ccc(F)cc2)ccc1Cl` [Compound 11k, 4-{[3-chloro-4-({[5-{1-[4-chloro-3-(methyloxy)phenyl]-1-methylethyl}-1-(4-fluorophenyl)-1H-imidazol-2-yl]thio}methyl)-5-fluorophenyl]sulfonyl}-1,1-dimethylpiperazin-1-ium], the EC50 at h-TGR5 and on human TGR5 (h-TGR5) was less than 100 nM throughout.

Turning to `COc1cc(C(C)(C)c2cnc(SCc3c(F)cc(S(=O)(=O)N4CC[C@H]([N+](C)(C)C)C4)cc3Cl)n2-c2ccc(F)cc2)ccc1Cl` [Compound 11l, (3S)-1-{[3-chloro-4-({[5-{1-[4-chloro-3-(methyloxy)phenyl]-1-methylethyl}-1-(4-fluorophenyl)-1H-imidazol-2-yl]thio}methyl)-5-fluorophenyl]sulfonyl}-N,N,N-trimethylpyrrolidin-3-aminium], the EC50 at h-TGR5 and on human TGR5 (h-TGR5) was less than 100 nM throughout.

With `CC[N+](C)(C)CCCN(C)S(=O)(=O)c1cc(F)c(CSc2ncc(C(C)(C)c3ccc(Cl)c(OC)c3)n2-c2ccc(F)cc2)c(Cl)c1` [Compound 11m, 3-[{[3-chloro-4-({[5-{1-[4-chloro-3-(methyloxy)phenyl]-1-methylethyl}-1-(4-fluorophenyl)-1H-imidazol-2-yl]thio}methyl)-5-fluorophenyl)sulfonyl}(methyl)amino]-N-ethyl-N,N-dimethylpropan-1-aminium], the EC50 at h-TGR5 and on human TGR5 (h-TGR5) was less than 100 nM in each case.

(Values after patent US8846739B2, “TGR5 agonists” (Exelixis Patent Company LLC, priority 2009, dated 2014).)
